Test results as given in paper PMC5421785, “Citrullination only infrequently impacts peptide binding to HLA class II MHC” (PLoS ONE, 2017).
Read-outs that look alike come from different tables or passages of the source. Square brackets hold non-standard residues; d marks the D form. Peptide text beside a SMILES is read from it. Cit = NC(=O)NCCC[C@H](N)C(=O)O

What was measured:
HLA-DRB1*01:01 = target: T1, HLA-DRB1*01:01 (Homo sapiens, UniProt P01903+P01911, A100R/D57E/F55L/F60I/F76Y/I96L/L162R/M171V/P40L/Q125E/R42F/V115G/Y59C); assay: HLA class II peptide binding, inhibition of radiolabeled peptide binding to purified MHC; settings: for DRB1*01:01 binding capacity, WT/cit ratio: ratio of WT IC50 to Cit IC50
T1 construct: EBV transformed homozygous cell lines were used as sources of MHC molecules; endogenous in cells; host or cells: EBV transformed homozygous cell lines

HLA-DRB1*04:01 = target: T2, HLA-DRB1*04:01 (Homo sapiens, UniProt P01903+P01911, A100K/A169T/F76Y/I96L/K127E/L162R/M171V/N62H/P40V/Q125Y/R42H/S133A/S149N/S66Y/V115G/V209L/W38E); assay: as above; settings: for DRB1*04:01 binding capacity, WT/cit ratio: ratio of WT IC50 to Cit IC50
T2 construct: EBV transformed homozygous cell lines were used as sources of MHC molecules; endogenous in cells; host or cells: EBV transformed homozygous cell lines

[1] = citrullinated 15-mer peptide (X = citrulline), purified HLA-DRB1*01:01, read-out: DRB1*01:01 binding capacity, Cit peptide (IC50 nM)
[2] = citrullinated 15-mer peptide (X = citrulline), purified HLA-DRB1*04:01, read-out: DRB1*04:01 binding capacity, Cit peptide (IC50 nM)
[3] = citrullinated 15-mer (X), purified MHC, inhibition of radiolabeled peptide binding, dash = IC50 >40,000 nM, read-out: DRB1*01:01 binding capacity, Cit peptide (IC50 nM)
[4] = citrullinated 15-mer (X), purified MHC, inhibition of radiolabeled peptide binding, dash = IC50 >40,000 nM, read-out: DRB1*04:01 binding capacity, Cit peptide (IC50 nM)
[5] = >1 = citrullination increases binding

Row | SMILES | IC50 (HLA-DRB1*01:01; [1]) | IC50 (HLA-DRB1*04:01; [2]) | IC50 (HLA-DRB1*01:01; [3]) | IC50 (HLA-DRB1*04:01; [4]) | also measured
1 | CC(C)[C@H](NC(=O)CNC(=O)[C@H](C)NC(=O)[C@H](C)N)C(=O)N[C@@H](CCCCN)C(=O)NCC(=O)N[C@@H](CC(=O)O)C(=O)N[C@@H](CCCNC(N)=O)C(=O)NCC(=O)N[C@@H](CCC(=O)O)C(=O)N[C@H](C(=O)NCC(=O)N[C@@H](C)C(=O)N[C@H](C(=O)NCC(=O)O)C(C)C)[C@@H](C)O [AAGVKGDXGETGAVG] (H-AAGVKGD[Cit]GETGAVG-OH) | 2010 nM | > 40000 nM |  |  | 
2 | CC(C)C[C@H](NC(=O)[C@H](C)NC(=O)[C@H](CC(=O)O)NC(=O)[C@H](CC(N)=O)NC(=O)[C@H](CC(N)=O)NC(=O)[C@H](CCCNC(=N)N)NC(=O)[C@H](CC(N)=O)NC(=O)[C@H](C)NC(=O)[C@H](C)N)C(=O)N[C@@H](CCCNC(N)=O)C(=O)N[C@@H](CCC(N)=O)C(=O)N[C@@H](C)C(=O)N[C@@H](CCCCN)C(=O)N[C@@H](CCC(N)=O)C(=O)N[C@@H](CCC(=O)O)C(=O)O [AANRNNDALXQAKQE] (H-AANRNNDAL[Cit]QAKQE-OH; N-terminus and C-terminus assumed) |  |  | > 40000 nM | > 40000 nM | DRB1*01:01 binding capacity, WT/cit ratio (HLA-DRB1*01:01): 1.0; DRB1*04:01 binding capacity, WT/cit ratio (HLA-DRB1*04:01): 1.0
3 | CC(C)C[C@H](NC(=O)[C@H](C)NC(=O)[C@H](CC(=O)O)NC(=O)[C@H](CC(N)=O)NC(=O)[C@H](CC(N)=O)NC(=O)[C@H](CCCNC(N)=O)NC(=O)[C@H](CC(N)=O)NC(=O)[C@H](C)NC(=O)[C@H](C)N)C(=O)N[C@@H](CCCNC(=N)N)C(=O)N[C@@H](CCC(N)=O)C(=O)N[C@@H](C)C(=O)N[C@@H](CCCCN)C(=O)N[C@@H](CCC(N)=O)C(=O)N[C@@H](CCC(=O)O)C(=O)O [AANXNNDALRQAKQE] (H-AAN[Cit]NNDALRQAKQE-OH; N-terminus and C-terminus assumed) |  |  | > 40000 nM | > 40000 nM | DRB1*01:01 binding capacity, WT/cit ratio (HLA-DRB1*01:01): 1.0; DRB1*04:01 binding capacity, WT/cit ratio (HLA-DRB1*04:01): 1.0
4 | CC(C)C[C@H](NC(=O)[C@H](C)NC(=O)[C@H](CC(=O)O)NC(=O)[C@H](CC(N)=O)NC(=O)[C@H](CC(N)=O)NC(=O)[C@H](CCCNC(=N)N)NC(=O)[C@H](CC(N)=O)NC(=O)[C@H](C)NC(=O)[C@H](C)NC(=O)[C@H](CCC(=O)O)NC(=O)[C@H](CO)NC(=O)[C@H](CC(C)C)NC(=O)[C@H](CC(=O)O)NC(=O)[C@H](C)N)C(=O)N[C@@H](CCCNC(N)=O)C(=O)O [ADLSEAANRNNDALX] (H-ADLSEAANRNNDAL[Cit]-OH) |  |  | 6180 nM | 23300 nM | 
5 | CC(C)C[C@H](NC(=O)[C@H](C)NC(=O)[C@H](CC(=O)O)NC(=O)[C@H](CC(N)=O)NC(=O)[C@H](CC(N)=O)NC(=O)[C@H](CCCNC(N)=O)NC(=O)[C@H](CC(N)=O)NC(=O)[C@H](C)NC(=O)[C@H](C)NC(=O)[C@H](CCC(=O)O)NC(=O)[C@H](CO)NC(=O)[C@H](CC(C)C)NC(=O)[C@H](CC(=O)O)NC(=O)[C@H](C)N)C(=O)N[C@@H](CCCNC(=N)N)C(=O)O [ADLSEAANXNNDALR] (H-ADLSEAAN[Cit]NNDALR-OH) |  |  | 7340 nM | 22200 nM | 
6 | CC(C)C[C@H](NC(=O)CNC(=O)[C@H](CCCNC(=N)N)NC(=O)[C@H](CCC(=O)O)NC(=O)CNC(=O)[C@@H]1CCCN1C(=O)[C@H](CCC(=O)O)NC(=O)CNC(=O)[C@H](C)N)C(=O)N[C@@H](CCCCN)C(=O)NCC(=O)N[C@@H](Cc1c[nH]cn1)C(=O)N[C@@H](CCCNC(N)=O)C(=O)NCC(=O)N[C@@H](Cc1ccccc1)C(=O)O [AGEPGERGLKGHXGF] (H-AGEPGERGLKGH[Cit]GF-OH) | 594 nM | > 40000 nM |  |  | 
7 | CC(C)C[C@H](NC(=O)CNC(=O)[C@H](CCCNC(N)=O)NC(=O)[C@H](CCC(=O)O)NC(=O)CNC(=O)[C@@H]1CCCN1C(=O)[C@H](CCC(=O)O)NC(=O)CNC(=O)[C@H](C)N)C(=O)N[C@@H](CCCCN)C(=O)NCC(=O)N[C@@H](Cc1c[nH]cn1)C(=O)N[C@@H](CCCNC(=N)N)C(=O)NCC(=O)N[C@@H](Cc1ccccc1)C(=O)O [AGEPGEXGLKGHRGF] (H-AGEPGE[Cit]GLKGHRGF-OH) | 783 nM | > 40000 nM |  |  | 
8 | CC[C@H](C)[C@H](NC(=O)[C@H](C)N)C(=O)N[C@@H](CC(N)=O)C(=O)N[C@H](C(=O)N[C@@H](CCC(=O)O)C(=O)N[C@@H](Cc1ccccc1)C(=O)N[C@@H](CCCCN)C(=O)N[C@@H](CC(N)=O)C(=O)N[C@H](C(=O)N[C@@H](CCCNC(N)=O)C(=O)N[C@H](C(=O)N[C@@H](CC(N)=O)C(=O)N[C@@H](CCC(=O)O)C(=O)N[C@@H](CCCCN)C(=O)N[C@H](C(=O)O)C(C)C)[C@@H](C)O)[C@@H](C)O)[C@@H](C)O [AINTEFKNTXTNEKV] (H-AINTEFKNT[Cit]TNEKV-OH) |  |  | 2370 nM | 931 nM | 
9 | CSCC[C@H](NC(=O)[C@H](CCC(N)=O)NC(=O)[C@@H](NC(=O)[C@H](CC(N)=O)NC(=O)[C@H](C)N)C(C)C)C(=O)N[C@H](C(=O)N[C@@H](Cc1ccccc1)C(=O)N[C@@H](CC(C)C)C(=O)N[C@@H](CCCNC(N)=O)C(=O)N[C@@H](CC(C)C)C(=O)N[C@@H](CC(C)C)C(=O)N[C@@H](CO)C(=O)N[C@H](C(=O)N[C@@H](CCC(=O)O)C(=O)NCC(=O)O)[C@@H](C)O)[C@@H](C)O [ANVQMTFLXLLSTEG] (H-ANVQMTFL[Cit]LLSTEG-OH) |  |  |  |  | IC50 (HLA-DRB1*01:01; citrullinated peptide as listed (X at Cit position), read-out: DRB1*01:01 binding capacity Cit peptide (IC50 nM)): 65 nM; IC50 (HLA-DRB1*04:01; citrullinated peptide as listed (X at Cit position), read-out: DRB1*04:01 binding capacity Cit peptide (IC50 nM)): 1060 nM
10 | CC[C@H](C)[C@H](NC(=O)[C@H](CCC(=O)O)NC(=O)[C@H](CC(=O)O)NC(=O)[C@H](CCC(N)=O)NC(=O)[C@H](CC(C)C)NC(=O)[C@H](CCCNC(N)=O)NC(=O)CNC(=O)[C@@H](NC(=O)[C@@H](NC(=O)[C@H](CC(=O)O)NC(=O)[C@H](CCC(N)=O)NC(=O)[C@H](Cc1ccc(O)cc1)NC(=O)[C@H](CC(N)=O)NC(=O)[C@H](C)N)[C@@H](C)O)[C@@H](C)CC)C(=O)N[C@@H](CCC(N)=O)C(=O)O [ANYQDTIGXLQDEIQ] (H-ANYQDTIG[Cit]LQDEIQ-OH) | 1050 nM | 6720 nM |  |  | 
11 | CC(C)C[C@H](NC(=O)[C@H](CCCNC(=N)N)NC(=O)[C@H](C)N)C(=O)N[C@@H](CC(=O)O)C(=O)N[C@@H](CC(C)C)C(=O)N[C@@H](CCC(=O)O)C(=O)N[C@@H](CCCNC(N)=O)C(=O)N[C@@H](CCCCN)C(=O)N[C@H](C(=O)N[C@@H](CCC(=O)O)C(=O)N[C@@H](CO)C(=O)N[C@@H](CC(C)C)C(=O)N[C@@H](CCC(N)=O)C(=O)N[C@@H](CCC(=O)O)C(=O)N[C@@H](CCC(=O)O)C(=O)O)C(C)C [ARLDLEXKVESLQEE] (H-ARLDLE[Cit]KVESLQEE-OH) |  |  | 1340 nM | 12000 nM | 
12 | CC(C)[C@H](NC(=O)[C@H](Cc1ccc(O)cc1)NC(=O)[C@H](CO)NC(=O)[C@H](CCCNC(N)=O)NC(=O)[C@H](CO)NC(=O)[C@H](CO)NC(=O)[C@H](CO)NC(=O)[C@@H]1CCCN1C(=O)[C@H](CCCNC(=N)N)NC(=O)[C@H](CO)NC(=O)[C@H](C)N)C(=O)N[C@H](C(=O)N[C@H](C(=O)N[C@@H](CO)C(=O)N[C@H](C(=O)O)[C@@H](C)O)[C@@H](C)O)[C@@H](C)O [ASRPSSSXSYVTTST] (H-ASRPSSS[Cit]SYVTTST-OH) |  |  | 12900 nM | 1630 nM | 
13 | CC(C)[C@H](NC(=O)[C@H](Cc1ccc(O)cc1)NC(=O)[C@H](CO)NC(=O)[C@H](CCCNC(=N)N)NC(=O)[C@H](CO)NC(=O)[C@H](CO)NC(=O)[C@H](CO)NC(=O)[C@@H]1CCCN1C(=O)[C@H](CCCNC(N)=O)NC(=O)[C@H](CO)NC(=O)[C@H](C)N)C(=O)N[C@H](C(=O)N[C@H](C(=O)N[C@@H](CO)C(=O)N[C@H](C(=O)O)[C@@H](C)O)[C@@H](C)O)[C@@H](C)O [ASXPSSSRSYVTTST] (H-AS[Cit]PSSSRSYVTTST-OH) |  |  | 5560 nM | 757 nM | 
14 | C[C@H](N)C(=O)N[C@@H](CCCNC(N)=O)C(=O)NCC(=O)N[C@@H](C)C(=O)N[C@@H](CCC(N)=O)C(=O)NCC(=O)N1CCC[C@H]1C(=O)N1CCC[C@H]1C(=O)NCC(=O)N[C@@H](C)C(=O)N[C@H](C(=O)NCC(=O)N[C@@H](Cc1ccccc1)C(=O)N1CCC[C@H]1C(=O)NCC(=O)O)[C@@H](C)O [AXGAQGPPGATGFPG] (H-A[Cit]GAQGPPGATGFPG-OH; N-terminus and C-terminus assumed) | > 40000 nM | > 40000 nM |  |  | DRB1*01:01 binding capacity, WT/cit ratio (HLA-DRB1*01:01; [5]): 0.7; DRB1*04:01 binding capacity, WT/cit ratio (HLA-DRB1*04:01; [5]): 1.0
15 | CC(C)C[C@H](NC(=O)[C@H](CCCNC(N)=O)NC(=O)[C@H](C)N)C(=O)N[C@@H](CC(=O)O)C(=O)N[C@@H](CC(C)C)C(=O)N[C@@H](CCC(=O)O)C(=O)N[C@@H](CCCNC(=N)N)C(=O)N[C@@H](CCCCN)C(=O)N[C@H](C(=O)N[C@@H](CCC(=O)O)C(=O)N[C@@H](CO)C(=O)N[C@@H](CC(C)C)C(=O)N[C@@H](CCC(N)=O)C(=O)N[C@@H](CCC(=O)O)C(=O)N[C@@H](CCC(=O)O)C(=O)O)C(C)C [AXLDLERKVESLQEE] (H-A[Cit]LDLERKVESLQEE-OH) |  |  | 5290 nM | 9150 nM | 
16 | CC(C)C[C@H](NC(=O)CNC(=O)[C@H](CCCNC(=N)N)NC(=O)[C@@H](N)CCC(=O)O)C(=O)N[C@@H](CCCCN)C(=O)NCC(=O)N[C@@H](Cc1c[nH]cn1)C(=O)N[C@@H](CCCNC(N)=O)C(=O)NCC(=O)N[C@@H](Cc1ccccc1)C(=O)N[C@H](C(=O)NCC(=O)N[C@@H](CC(C)C)C(=O)N[C@@H](CCC(N)=O)C(=O)NCC(=O)O)[C@@H](C)O [ERGLKGHXGFTGLQG] (H-ERGLKGH[Cit]GFTGLQG-OH) | 28 nM |  |  |  | 
